Assay results reported in US10858384B2, “Synthetic molecule constructs” (KODE BIOTECH LIMITED, priority 2004, dated 2020).

Tests used:
[1] = test system: group O RBCs; test: Diamed agglutination of RBCs transformed at 4° C. with synthetic glycolipids (weak A, B and AB cells); format: cell-based, human; conditions: 0.03 mg/mL, anti-A, time = table row
Description: Transformation of RBCs with synthetic glycolipids Atri-sp-Ad-DOPE (I) and Btri-sp-Ad-DOPE (VI) at 4° C. was then evaluated (Tables 25 to 28). These transformations were directed towards the preparation of cells expressing low levels of A, B or A and B glycotopes (“weak A, B and AB cells”).
For the preparation of weak A and B cells transformation solutions (20 μL, Atri-sp-Ad-DOPE (I) at 0.08, 0.05 and 0.03 mg/mL, and Btri-sp-Ad-DOPE (VI) at 0.6, 0.3, 0.15, 0.08, 0.05 and 0.03 mg/mL) in 1× PBS were mixed with washed, packed group O RBCs (60 μL).
For the preparation of weak AB cells transformation solutions (20 μL, Atrii-sp-Ad-DOPE (I) at 0.07, 0.06 and 0.05 mg/mL, and Btri-sp-Ad-DOPE (VI) at 0.3, and 0.2 mg/mL) in 1× PBS were combined in block titre with washed, packed group O RBCs (60 μL). The combinations were: Atri-sp-Ad-DOPE (I) at 0.07 mg/mL+Btri-sp-Ad-DOPE (VI) at 0.3 mg/mL; Atri-sp-Ad-DOPE (I) at 0.07 mg/mL+Btri-sp-Ad-DOPE (VI) at 0.2 mg/mL; Atri-sp-Ad-DOPE (I) at 0.06 mg/mL+Btri-sp-Ad-DOPE (VI) at 0.3 mg/mL; Atri-sp-Ad-DOPE (I) at 0.06 mg/mL+Btri-sp-Ad-DOPE (VI) at 0.2 mg/mL; Atri-sp-Ad-DOPE (I) at 0.05 mg/mL+Btri-sp-Ad-DOPE (VI) at 0.3 mg/mL; and Atri-sp-Ad-DOPE (I) 0.05+Btri-sp-Ad-DOPE (VI) 0.2 mg/mL.
Cells and transformation solutions were placed in a […] fridge. Pipette mixing was performed at intervals. […]

[2] = test system: RBCs; test: Detectable transformation ability of synthetic glycolipids (agglutination); format: cell-based; conditions: agglutination with the appropriate antibody
Description: The synthetic glycolipid must also be able to insert into the membrane and be recognisable to the appropriate antibody for transformation to be detected by agglutination. Initial tests on the molecules were to establish solubility and thus eliminate those molecules that were unsuitable for use in the transformation of cells.

[3] = test system: RBCs; test: Column agglutination of RBCs transformed with sterile-filtered vs unfiltered synthetic glycolipid; format: cell-based; conditions: for Column agglutination: 0.01 mg/mL, anti-A BioClone
Description: Some Atri-sp-Ad-DOPE (I) had been sterile-filtered through a 0.2 μm filter. To investigate whether transformation would be the same with this product a comparative trial was done.

[4] = test system: RBCs; test: Insertion efficiency: post-transformation solutions concentrated 20x, Diamed serology; format: cell-based; conditions: post-transformation solution concentrated 20×, from 0.08 mg/mL
Description: In addition, the post-transformation solutions were concentrated 20× and compared in parallel with the transformation solutions of known concentration. Only the post-transformation solutions derived from the 0.08 mg/mL Atri-sp-Ad-DOPE (I) and 0.6 mg/mL Btri-sp-Ad-DOPE (VI) solutions were tested.
Post-transformation solutions (20 μL) were dialysed (pore size 500 Da) against de-ionised water for 2 days. The samples were left to dry in a fumehood for 10 days. At the end of this time they were transferred into a rotavapor flask and set on the rotavapor to rotate under vacuum with no heat overnight. Samples were dried in a water bath at 40° C. and washed over into smaller vessels with chloroform-methanol 2:1 leaving significant amounts of dried cellular material. The chloroform-methanol 2:1 washings were dried down, washed over again into test-tubes with chloroform-methanol 2:1 and dried down. These samples were redissolved in 1 mL of 1× PBS and used for transformation experiments. The cellular material in the bottom of the flasks was washed out with water into another set of tubes.
The post-transformation solutions (from Atri-sp-Ad-DOPE (I) at 0.08 mg/mL and Btri-sp-Ad-DOPE (VI) at 0.6 mg/mL, 20 μL) were added to washed, packed RBCs (60 μL). […]

[5] = test system: group O red blood cells (RBCs); test: Diamed gel-card agglutination of group O RBCs transformed at 37° C. with synthetic glycolipids; format: cell-based, human; design: scale not given here; conditions: for Agglutination, Diamed gel-cards, Albaclone anti-A / Agglutination, Diamed gel-cards, Bioclone anti-A: 0.025 mg/mL
Description: Washed packed group O red blood cells (RBCs) (3 parts by volume) and the synthetic glycolipid solution (1 part by volume, varying concentrations) were added to an eppendorf tube. The tube was incubated in a 37° C. waterbath for one hour, mixing every 15 minutes. […]
Tube serology and Diamed gel-card results for RBCs transformed with the different synthetic molecule constructs are provided in Table 38. Results for the stability of the RBCs transformed with the different synthetic glycolipids at different concentrations are provided in Tables 39 to 44.

[6] = test system: RBCs; test: Evaluation of insertion of different lipid tails by agglutination with the relevant antisera; format: cell-based; design: scale not given here
Description: Transformation of RBCs with synthetic glycolipids with different lipid tails was first evaluated (Tables 22 and 24).

CCCCCCCC/C=C\CCCCCCCC(=O)OC[C@H](COP(=O)(O)OCCNC(=O)CCCCC(=O)NCCCO[C@@H]1O[C@H](CO)[C@H](O)[C@H](O[C@H]2O[C@H](CO)[C@H](O)[C@H](O)[C@H]2NC(C)=O)[C@H]1O[C@@H]1O[C@@H](C)[C@@H](O)[C@@H](O)[C@@H]1O)OC(=O)CCCCCCC/C=C\CCCCCCCC [Atri-sp-Ad-DOPE (I)]
no significant difference: Difference in transformation between sterile-filtered (0.2 μm) and unfiltered preparation [3]
Yes: Detectable transformation ability [2]
0: Agglutination score ([1]; unwashed) | Agglutination score ([1]; washed) | Column agglutination ([3]; sterile-filtered) | Column agglutination ([3]; unfiltered) | Score (Diamed serology) [4] | Albaclone anti-A, Diamed ([5]; 0.01 mg/mL) | Bioclone anti-A, Diamed ([5]; 0.01 mg/mL) | Agglutination, Diamed gel-cards, Albaclone anti-A ([5]; Day 2, Alsevers) | Agglutination, Diamed gel-cards, Albaclone anti-A ([5]; Day 2, Cellstab) | Agglutination, Diamed gel-cards, Albaclone anti-A ([5]; Day 8, Alsevers) | Agglutination, Diamed gel-cards, Albaclone anti-A ([5]; Day 8, Cellstab) | Agglutination, Diamed gel-cards, Albaclone anti-A ([5]; Day 15, Alsevers) | Agglutination, Diamed gel-cards, Albaclone anti-A ([5]; Day 15, Cellstab) | Agglutination, Diamed gel-cards, Albaclone anti-A ([5]; Day 22, Alsevers) | Agglutination, Diamed gel-cards, Albaclone anti-A ([5]; Day 22, Cellstab) | Agglutination, Diamed gel-cards, Albaclone anti-A ([5]; Day 29, Alsevers) | Agglutination, Diamed gel-cards, Albaclone anti-A ([5]; Day 29, Cellstab) | Agglutination, Diamed gel-cards, Albaclone anti-A ([5]; Day 43, Cellstab) | Agglutination, Diamed gel-cards, Albaclone anti-A ([5]; Day 50, Cellstab) | Agglutination, Diamed gel-cards, Albaclone anti-A ([5]; Day 57, Cellstab) | Agglutination, Diamed gel-cards, Albaclone anti-A ([5]; Day 63, Cellstab) | Agglutination, Diamed gel-cards, Bioclone anti-A ([5]; Day 63, Cellstab) | Agglutination, Diamed gel-cards, Albaclone anti-A ([5]; Day 71, Cellstab) | Agglutination, Diamed gel-cards, Bioclone anti-A ([5]; Day 71, Cellstab) | Agglutination, Diamed gel-cards, Albaclone anti-A ([5]; Day 86, Cellstab) | Agglutination, Diamed gel-cards, Bioclone anti-A ([5]; Day 86, Cellstab) | Agglutination score ([6]; 10 μg/mL, Alba anti-A, first series) | Agglutination score ([6]; 10 μg/mL, Bio anti-A, first series) | Agglutination score ([6]; 20 μg/mL, Alba anti-A, first series) | Agglutination score ([6]; 20 μg/mL, Bio anti-A, first series) | Agglutination score ([6]; 30 μg/mL, Alba anti-A, first series) | Agglutination score ([6]; 1000 μg/mL, DBA)
w+: Agglutination, Diamed gel-cards, Bioclone anti-A ([5]; Day 22, Alsevers) | Agglutination, Diamed gel-cards, Bioclone anti-A ([5]; Day 29, Alsevers) | Agglutination, Diamed gel-cards, Albaclone anti-A ([5]; Day 43, Alsevers) | Agglutination, Diamed gel-cards, Albaclone anti-A ([5]; Day 50, Alsevers) | Agglutination, Diamed gel-cards, Bioclone anti-A ([5]; Day 57, Cellstab) | Agglutination score ([6]; 30 μg/mL, Bio anti-A, first series) | Agglutination score ([6]; 40 μg/mL, Alba anti-A, first series) | Agglutination score ([6]; 50 μg/mL, Alba anti-A, first series)
